Test results from patent US8846981B2, “1,1-di[(alkylphenoxy)ethoxy]cyclohexanes” (Southern Lithoplate, Inc., priority 2012, dated 2014).

Columns and labels:
[1] = related art; cited from earlier work
[2] = Solubility of the ketals in water / deionized water; type: physicochemical; conditions: for Solubility in water: product or starting alcohol as described in the example
Description: A typical aqueous alkaline developer for a positive-working, lithographic printing plate contains roughly 5% by weight of NaOH or KOH. A 1.0 M NaOH solution is equivalent to 4% by weight of NaOH.

[3] = Acid decomposition of the ketal back to starting alcohol and cyclohexanone; type: physicochemical; conditions: addition of an acid, such as p-toluenesulfonic acid
Method: A stirred mixture of 72 g (0.5 mol) of 1,1-dimethoxycyclohexane, 250 g (1.0 mol) of 2-[4-(1,1,3,3-tetramethylbutyl)phenoxy]ethanol, 0.080 g of p-toluenesulfonic acid, and 300 ml of toluene was reacted in a flask with a thermometer and fractional distillation column at 120° C. for 8 hours with continuous stirring. The low boiling methanol that was produced during the reaction was removed. The reaction mixture was cooled to room temperature and washed with a small amount of an aqueous 1.0 M sodium hydroxide solution until the mixture was neutralized. The reaction mixture was then washed with a saturated sodium chloride solution to remove any remaining water in the toluene. Next the reaction mixture was dried over anhydrous potassium carbonate to remove any minor amounts of water and to make sure all of the p-toluenesulfonic acid was removed. The resulting mixture was filtered. The filtrate was evaporated under reduced pressure at 60° C. until all of the toluene was removed. […] The starting surfactant is water-insoluble. This ketal with a theoretical molecular weight of 580 has the structural formula shown below.

[4] = Solubility in a 1.0 M NaOH water solution; type: physicochemical; conditions: 1.0 M NaOH water solution (equivalent to 4% by weight NaOH)
Description: The physical appearance of the ketals from Examples 1-4 and from Comparative Examples A-B are given in the following table, along with their solubility in deionized water and in a 1.0 M NaOH water solution. A typical aqueous alkaline developer for a positive-working, lithographic printing plate contains roughly 5% by weight of NaOH or KOH. A 1.0 M NaOH solution is equivalent to 4% by weight of NaOH.

[5] = related art; cited from earlier work; remark: listed apart in the source

| Solubility in DI Water ([2]; deionized water) | Solubility in water [2] | Solubility in 1.0M NaOH [4] | SMILES | Decomposition by strong acids (background statement) [1] | Decomposition by acid [3] | Solubility in water (background statement, words) [5] |
| --- | --- | --- | --- | --- | --- | --- |
| insoluble | water-insoluble | insoluble | c1ccc(OCCOC2(OCCOc3ccccc3)CCCCC2)cc1 [A, 1,1-di(2-phenoxyethoxy)cyclohexane] | decompose this ketal into cyclohexanone and 2-phenoxyethanol | can be converted back to the starting alcohol and cyclohexanone | water insoluble |
|  | low water solubility |  | OCCOc1ccccc1 [2-phenoxyethanol] |  |  |  |
|  | water-insoluble |  | CC(C)(C)c1ccc(OCCO)cc1 [2-[4-(1,1-dimethylethyl)phenoxy]ethanol] |  |  |  |

| SMILES | Solubility in DI Water ([2]; deionized water) | Solubility in water [2] | Solubility in 1.0M NaOH [4] | Decomposition by strong acids (background statement) [1] | Decomposition by acid [3] | Solubility in water (background statement, words) [5] |
| --- | --- | --- | --- | --- | --- | --- |
| CC(C)(C)CC(C)(C)c1ccc(OCCO)cc1 [2-[4-(1,1,3,3-tetramethylbutyl)phenoxy]ethanol] |  | water-insoluble |  |  |  |  |
